Measurements reported in PMC5734728, “The JAK2/STAT3 inhibitor pacritinib effectively inhibits patient-derived GBM brain tumor initiating cells in vitro and when used in combination with temozolomide increases survival in an orthotopic xenograft model” (PLoS ONE, 2017).

Assay: human liver microsomal stability assay
Type: in vitro ADME
Settings: human liver microsomes, 30-minute incubation
Description: Working stocks were initially diluted to a concentration of 40 μM in 0.1 M potassium phosphate buffer before addition to the reaction vials. Pooled mouse (CD-1, male) or human (50 donors) liver microsomes were utilized at a final concentration of 0.5 mg/mL. Duplicate wells were used for each time point (0 and 30 minutes). Reactions were carried out at 37°C in a shaker, and the final concentration of DMSO was kept constant at 0.01%. The final volume for each reaction was 100 μL, which included the addition of an NADPH-Regeneration solution (NRS) mix. The NRS mix was comprised of glucose 6-phosphate dehydrogenase (0.4 U/mL), NADP+ (1.3 mM), MgCl2 (3.3 mM), and glucose 6-phosphate (3.3 mM) in assay mixtures. Upon completion of the 30-minute time point, reactions were terminated by the addition of 1.5-volumes (150 μL) of ice-cold acetonitrile with 0.5% formic acid and internal standard. Samples were then centrifuged at 4,000 rpm for 10 minutes to remove debris and precipitated protein. Approximately 150 μL of supernatant was subsequently transferred to a new 96-well microplate for LC-MS analysis. Narrow-window mass extraction LC-MS analysis was performed for all samples using a Waters Xevo quadrupole time-of-flight (QToF) mass spectrometer and an ACQUITY UPLC system, to determine relative peak areas of parent compound.

For C1=C/COCc2cc(ccc2OCCN2CCCC2)Nc2nccc(n2)-c2cccc(c2)COC/1 [pacritinib], the stability rating was “Stable” and the remaining at 0.5 h, 1 μM (1 μM) was 76.2 ± 7.9%.
